Key:
STAT1 = STAT1 (Homo sapiens, UniProt P42224); assay: Binding affinity to BET and STAT family members
STAT3 = STAT3 (Homo sapiens, UniProt P40763); assay: STAT3 binding inhibition assay; parameters: purchased Abcam
PBMCs = assay: MTT cytotoxicity assay; assay type: cell-based; conditions: PBMC, 48 h treatment, read-out: IC50 (μM) ± SD PBMCs
Method: (§1) The effect of hit compounds on cytotoxicity was determined as previously reported ([Ding et al., 2020]). In brief, cells treated with the tested compounds were added with MTT reagent to form formazan crystals, and then the optical density (OD) values at 570 nm were determined after the crystals were dissolved in DMSO. […] Next, the values of IC50 of the selected compounds against more RCC cell lines were determined. The 5 × 10^3 cells in 100 μL culture medium were injected into each well of a 96-well plate and cultured overnight. Add different concentrations of compounds and incubate for 48 h. Then 100 μL of MTT (0.5 mg/mL) solution was added to the 96-well plate and maintained at 37°C for 4 h. Finally, 200 μL of DMSO was added and shaken for 10 min. The OD values at 570 nm were determined by a Synergy 4 microplate reader.

CAKI-2 xenograft tumors = assay: CAKI-2 cell-derived xenograft model; assay type: in vivo, BALB/c nude mice; conditions: 10 mg/kg intraperitoneally every 12 h, nude mice
Method: (§2) To further investigate the in vivo effects of BST-4, 6–8 weeks male BALB/c nude mice were obtained by Changzhou Cavens Experimental Animal Co., Ltd. (Changzhou, China). The mice were acclimatized to the laboratory environment for a week before the experiment. The housing conditions were maintained at a temperature of 22°C ± 2°C, a relative humidity of 50%–60%, and a 12-h light/dark cycle. 0.1 mL of CAKI-2cell suspension (1 × 10⁶ cells) was subcutaneously injected into the right flank of each mouse. […] The vehicle group was injected with a vehicle solution consisting of 5% DMSO and PBS. The tumor volume of mice was measured every 2 days and calculated according to the formula: (c × c × d)/2, where c and d represent the minimum diameter and maximum diameter, respectively. All animal experiments were performed and approved by the Ethics Committee of China Pharmaceutical University.

[1] = system: p-STAT3 and c-myc protein; assay: Western blot on xenograft tumor tissues; assay type: in vivo, BALB/c nude mice; conditions: xenograft tumor tissue
Method: For the assessment of protein expression levels, Western blot analysis was conducted following a standardized protocol ([Zhou et al., 2022]). The CAKI-2 cells were initially rinsed with PBS to remove any residual culture medium. Subsequently, cells were lysed using a RIPA buffer supplemented with 1 mM phenylmethylsulfonyl fluoride (PMSF), and the lysate was incubated on ice for a duration of 1 h. The lysate was centrifuged at a speed of 13,000 rpm for 30 min at 4°C. Protein concentrations were quantified using a BCA protein assay kit (Beyotime, Shanghai, China), ensuring equal protein loading for each sample. Samples were then resolved by SDS-PAGE and transferred onto a polyvinylidene difluoride (PVDF) membrane. Subsequently, the membrane was blocked with 3% BSA in PBS at room temperature for 2 h and incubated overnight with the corresponding antibody at 4°C. […] The specific protein bands were visualized using ECL detection system (Tanon, Shanghai, China), and the band intensities were quantified using ImageJ software.
To further investigate the in vivo effects of BST-4, 6–8 weeks male BALB/c nude mice were obtained by Changzhou Cavens Experimental Animal Co., Ltd. (Changzhou, China). […] The tumor volume of mice was measured every 2 days and calculated according to the formula: (c × c × d)/2, where c and d represent the minimum diameter and maximum diameter, respectively. […]

BRD2 [2] = molecular target: T1, BRD2 (Homo sapiens, UniProt P25440); assay: Binding affinity to BET and STAT family members
BRD2 [3] = molecular target: T1, BRD2; assay: Inhibitory effect on BET and STAT family members; assay type: binding
Source text: (§3) TABLE 4 The inhibitory effect of BST-4 on other members of the BET and STAT families. | column: IC50 (μM)

STAT4 = STAT4 (Homo sapiens, UniProt Q14765); assay: Inhibitory effect on BET and STAT family members; assay type: binding
Source text: as §3

STAT6 = STAT6 (Homo sapiens, UniProt P42226); assay: Inhibitory effect on BET and STAT family members; assay type: binding
Source text: as §3

BRDT = BRDT (Homo sapiens, UniProt Q58F21); assay: Inhibitory effect on BET and STAT family members; assay type: binding
Source text: as §3

c-myc mRNA and Ki67 mRNA = assay: RT-qPCR on xenograft tumor tissues; assay type: in vivo, BALB/c nude mice; conditions: xenograft tumor tissue
Method: (§4) This method was performed as previously reported. Briefly, the CAKI-2 cells were seeded into 6-well plates and cultured overnight, and treated with different concentrations of BST-4 for 24 h. RNA was extracted from cells and tissues using Trizol reagent and reverse transcribed using PrimeScriptRTase. cDNA was used for RT-qPCR SYBR Green assays (Takara). The relative levels of c-myc mRNA were calculated as [(c-myc mRNA in the treatment group)/(β-actin mRNA in the treatment group)]/[(c-myc mRNA in the control group)/(β-actin mRNA in the control group).
as §2, with “All animal experiments were performed and approved by the Ethics Committee of China Pharmaceutical University.” left out

shBRD4-CAKI-2 cells = assay: MTT assay on shRNA-transfected CAKI-2 cells; assay type: cell-based; conditions: Homo sapiens, CAKI-2 stably expressing BRD4 shRNA, 48 h, read-out: IC50 (μM) ± SD shBRD4-CAKI-2
Method: as §1
(§5) ^aIC50 (μM) is the concentration of compound needed to reduce cell growth by 50% following 48 h cell treatment with BST-4. shControl-CAKI-2: CAKI-2 cells stably expressing Control shRNA; shBRD4-CAKI-2 cells: CAKI-2 cells stably expressing BRD4 shRNA; shSTAT3-CAKI-2 cells: CAKI-2 cells stably expressing STAT3 shRNA; shBRD4/STAT3-CAKI-2 cells: CAKI-2 cells stably expressing BRD4/STAT3 shRNA. Each experiment was performed at least three times. Data are presented as the mean ± SD.

shSTAT3-CAKI-2 cells = assay: MTT assay on shRNA-transfected CAKI-2 cells; assay type: cell-based; conditions: Homo sapiens, CAKI-2 stably expressing STAT3 shRNA, 48 h, read-out: IC50 (μM) ± SD shSTAT3-CAKI-2
Method: as §1, §5

shControl-CAKI-2 cells = assay: MTT assay on shRNA-transfected CAKI-2 cells; assay type: cell-based; conditions: Homo sapiens, CAKI-2 stably expressing Control shRNA, 48 h, read-out: IC50 (μM) ± SD shControl-CAKI-2
Method: as §1, §5

[4] = system: shBRD4/STAT3-CAKI-2 cells; assay: MTT assay on shRNA-transfected CAKI-2 cells; assay type: cell-based; conditions: Homo sapiens, CAKI-2 stably expressing BRD4/STAT3 shRNA, 48 h, read-out: IC50 (μM) ± SD shBRD4/STAT3-CAKI-2
Method: as §1, §5

c-myc mRNA = assay: RT-qPCR of c-myc mRNA in CAKI-2 cells; assay type: cell-based, human; conditions: 24 h, different concentrations
Method: as §4

T1 sequence (P25440 whole entry): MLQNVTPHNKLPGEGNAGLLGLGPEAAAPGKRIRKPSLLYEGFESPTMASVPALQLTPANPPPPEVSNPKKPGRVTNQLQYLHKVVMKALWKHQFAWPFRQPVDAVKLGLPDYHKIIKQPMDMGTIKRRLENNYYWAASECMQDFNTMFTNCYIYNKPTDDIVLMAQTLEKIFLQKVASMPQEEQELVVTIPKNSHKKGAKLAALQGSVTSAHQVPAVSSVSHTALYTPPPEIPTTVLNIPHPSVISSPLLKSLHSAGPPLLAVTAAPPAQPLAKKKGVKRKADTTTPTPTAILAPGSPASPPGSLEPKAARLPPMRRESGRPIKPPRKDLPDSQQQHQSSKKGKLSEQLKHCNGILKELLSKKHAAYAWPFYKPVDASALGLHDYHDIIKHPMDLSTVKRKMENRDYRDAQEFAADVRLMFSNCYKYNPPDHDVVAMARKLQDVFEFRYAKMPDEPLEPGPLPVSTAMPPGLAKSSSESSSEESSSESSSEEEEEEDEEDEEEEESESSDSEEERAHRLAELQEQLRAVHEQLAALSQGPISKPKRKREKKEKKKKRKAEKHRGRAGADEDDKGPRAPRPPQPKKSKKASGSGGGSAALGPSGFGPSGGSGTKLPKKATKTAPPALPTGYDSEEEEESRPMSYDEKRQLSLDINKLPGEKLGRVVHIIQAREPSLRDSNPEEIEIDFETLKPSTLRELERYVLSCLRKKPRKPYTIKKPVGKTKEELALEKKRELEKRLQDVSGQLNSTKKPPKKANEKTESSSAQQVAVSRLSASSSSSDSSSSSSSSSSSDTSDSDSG
STAT3, sequence (P40763 whole entry): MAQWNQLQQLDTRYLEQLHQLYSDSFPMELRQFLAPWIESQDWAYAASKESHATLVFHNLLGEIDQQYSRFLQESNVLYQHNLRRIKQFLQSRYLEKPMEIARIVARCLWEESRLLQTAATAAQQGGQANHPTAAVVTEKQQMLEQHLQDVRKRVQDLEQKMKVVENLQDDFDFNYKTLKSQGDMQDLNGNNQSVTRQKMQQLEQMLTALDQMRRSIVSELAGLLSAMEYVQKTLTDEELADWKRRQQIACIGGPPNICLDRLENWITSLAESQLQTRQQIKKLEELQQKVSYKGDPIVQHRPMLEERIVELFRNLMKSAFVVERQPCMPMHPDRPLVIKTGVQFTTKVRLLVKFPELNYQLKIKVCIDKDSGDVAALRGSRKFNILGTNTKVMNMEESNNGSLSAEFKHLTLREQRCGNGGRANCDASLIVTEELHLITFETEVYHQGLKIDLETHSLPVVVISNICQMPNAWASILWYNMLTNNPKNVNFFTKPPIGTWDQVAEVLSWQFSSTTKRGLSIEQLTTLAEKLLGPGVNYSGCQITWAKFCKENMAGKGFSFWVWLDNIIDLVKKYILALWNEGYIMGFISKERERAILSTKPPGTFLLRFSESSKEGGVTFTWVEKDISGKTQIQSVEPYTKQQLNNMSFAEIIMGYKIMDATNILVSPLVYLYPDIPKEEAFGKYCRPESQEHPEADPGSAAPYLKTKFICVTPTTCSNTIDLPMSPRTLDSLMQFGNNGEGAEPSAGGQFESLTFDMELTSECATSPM
STAT6, sequence (P42226 whole entry): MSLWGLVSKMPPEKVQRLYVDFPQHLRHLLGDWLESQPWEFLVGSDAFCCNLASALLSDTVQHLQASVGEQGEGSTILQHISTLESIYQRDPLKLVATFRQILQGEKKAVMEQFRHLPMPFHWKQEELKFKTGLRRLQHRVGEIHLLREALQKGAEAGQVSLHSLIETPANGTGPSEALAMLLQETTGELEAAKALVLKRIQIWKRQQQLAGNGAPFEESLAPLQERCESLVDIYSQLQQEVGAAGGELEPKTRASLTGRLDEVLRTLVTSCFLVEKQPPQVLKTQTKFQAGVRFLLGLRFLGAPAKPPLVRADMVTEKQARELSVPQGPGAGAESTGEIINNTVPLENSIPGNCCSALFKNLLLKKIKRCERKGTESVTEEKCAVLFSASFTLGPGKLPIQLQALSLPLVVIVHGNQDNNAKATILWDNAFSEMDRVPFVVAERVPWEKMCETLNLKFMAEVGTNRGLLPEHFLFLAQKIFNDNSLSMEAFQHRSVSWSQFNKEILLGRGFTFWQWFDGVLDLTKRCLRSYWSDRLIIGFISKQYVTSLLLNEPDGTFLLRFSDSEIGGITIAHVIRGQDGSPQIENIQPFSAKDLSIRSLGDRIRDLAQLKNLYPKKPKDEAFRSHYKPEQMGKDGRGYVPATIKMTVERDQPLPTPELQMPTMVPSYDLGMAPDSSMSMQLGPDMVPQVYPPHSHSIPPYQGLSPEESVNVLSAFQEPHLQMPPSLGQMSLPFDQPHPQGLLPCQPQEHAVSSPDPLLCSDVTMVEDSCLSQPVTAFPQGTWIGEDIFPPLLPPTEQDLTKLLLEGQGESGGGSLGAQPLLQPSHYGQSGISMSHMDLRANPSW
STAT1, sequence (P42224 whole entry): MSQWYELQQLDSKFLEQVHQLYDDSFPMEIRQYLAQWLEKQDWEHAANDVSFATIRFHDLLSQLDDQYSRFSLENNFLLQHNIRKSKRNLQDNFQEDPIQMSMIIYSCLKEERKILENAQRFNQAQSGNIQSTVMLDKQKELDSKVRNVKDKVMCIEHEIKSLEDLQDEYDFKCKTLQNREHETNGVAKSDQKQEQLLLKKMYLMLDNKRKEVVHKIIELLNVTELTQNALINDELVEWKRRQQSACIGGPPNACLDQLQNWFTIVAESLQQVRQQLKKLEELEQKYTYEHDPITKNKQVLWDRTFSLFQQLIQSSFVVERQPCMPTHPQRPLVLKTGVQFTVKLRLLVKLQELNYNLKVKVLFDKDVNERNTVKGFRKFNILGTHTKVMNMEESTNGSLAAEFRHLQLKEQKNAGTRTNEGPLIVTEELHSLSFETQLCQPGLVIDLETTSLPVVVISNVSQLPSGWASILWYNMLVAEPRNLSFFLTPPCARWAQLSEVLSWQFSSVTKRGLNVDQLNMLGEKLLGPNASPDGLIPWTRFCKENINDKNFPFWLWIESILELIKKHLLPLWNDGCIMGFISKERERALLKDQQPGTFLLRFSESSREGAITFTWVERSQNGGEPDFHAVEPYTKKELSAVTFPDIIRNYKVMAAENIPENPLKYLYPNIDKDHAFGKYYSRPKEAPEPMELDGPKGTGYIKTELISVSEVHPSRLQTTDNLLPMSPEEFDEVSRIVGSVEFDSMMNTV
STAT4, sequence (Q14765 whole entry): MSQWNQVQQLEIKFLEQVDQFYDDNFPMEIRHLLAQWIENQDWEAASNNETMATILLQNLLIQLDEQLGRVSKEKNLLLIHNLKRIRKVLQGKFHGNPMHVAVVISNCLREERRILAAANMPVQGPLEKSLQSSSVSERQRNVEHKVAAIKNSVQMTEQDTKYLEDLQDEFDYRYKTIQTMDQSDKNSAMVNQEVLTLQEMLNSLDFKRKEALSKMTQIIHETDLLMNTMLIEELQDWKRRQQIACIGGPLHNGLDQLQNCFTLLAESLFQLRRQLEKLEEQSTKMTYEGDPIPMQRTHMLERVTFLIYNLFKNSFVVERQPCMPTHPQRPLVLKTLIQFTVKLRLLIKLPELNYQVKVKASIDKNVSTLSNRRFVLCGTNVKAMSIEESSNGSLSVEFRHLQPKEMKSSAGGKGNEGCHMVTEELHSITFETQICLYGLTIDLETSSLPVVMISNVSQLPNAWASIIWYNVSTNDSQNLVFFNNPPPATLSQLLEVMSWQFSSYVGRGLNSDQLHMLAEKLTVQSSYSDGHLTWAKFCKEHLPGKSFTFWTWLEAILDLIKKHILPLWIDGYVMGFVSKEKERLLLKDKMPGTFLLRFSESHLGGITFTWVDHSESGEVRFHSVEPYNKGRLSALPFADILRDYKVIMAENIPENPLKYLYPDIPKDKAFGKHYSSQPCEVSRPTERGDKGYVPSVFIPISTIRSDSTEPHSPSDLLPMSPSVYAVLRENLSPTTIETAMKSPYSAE

Kd (STAT1): > 10 µM
IC50 (STAT3): 0.00807 ± 0.00051 µM
STAT3 inhibition relative to CJ-1383 (STAT3; IC50 ratio vs CJ-1383): about 115 fold
Kd (BRD2 [2]): > 10 µM
IC50 (BRD2 [3]): > 10 µM
IC50 (STAT4): > 10 µM
IC50 (STAT6): > 10 µM
IC50 (BRDT): > 10 µM
SMILES: CCS(=O)(=O)Cc1cnc(Oc2c(F)cc(F)cc2OCCCCOc2ccc(/C=C/c3cc(OC)cc(OC)c3)cc2)c(-c2cc(C)c3c(=O)[nH]ccn23)c1 [BST-4]
IC50 (PBMCs): > 10 µM
tumor growth (tumor volume) in CAKI-2 xenograft (CAKI-2 xenograft tumors): significantly inhibited tumor growth
c-myc protein expression level in tumor tissues [1]: significantly downregulated
p-STAT3 protein expression level in tumor tissues [1]: significantly downregulated
Ki67 mRNA expression level in tumor tissues in vivo (c-myc mRNA and Ki67 mRNA): downregulated
c-myc mRNA expression level in tumor tissues in vivo (c-myc mRNA and Ki67 mRNA): downregulated
IC50 (shBRD4-CAKI-2 cells): 5.09 ± 0.27 µM
IC50 (shSTAT3-CAKI-2 cells): 3.48 ± 0.21 µM
IC50 (shControl-CAKI-2 cells): 0.76 ± 0.05 µM
IC50 [4]: > 10 µM
expression of c-myc mRNA in CAKI-2 cells (c-myc mRNA): strongly dose-dependent downregulated

From article PMC11897524 (Frontiers in Pharmacology, 2025)
